{"source": "patent US9994890B1", "about": "“Methods of natural product drug discovery” (priority 2012, dated 2018)", "key": {"[1]": {"test_system": "mutants obtained by selection of the S. aureus strain RN4220", "assay": "MIC determination, mutants obtained by selection on antibiotic agar", "type": "cell-based, Staphylococcus aureus", "conditions": "for MIC of the mutant: Table 1, mutant resistant to the antibiotic of the same line; for MIC: Staphylococcus aureus, read-out: MIC of the mutant", "experimental": "(§1) The majority of mutants were obtained by selection of the S. aureus strain RN4220 on agar plates in presence of an antibiotic. Briefly, the minimal inhibitory concentration (“MIC”) of the wildtype strain RN4220 was determined. For this purpose a liquid culture with an OD of 0.5 was added as a dilution of 1:100 in Mueller-Hinton broth to each well of a 96-well plate containing a dilution series of a certain antibiotic. The 96-well plate was incubated at 37° C. overnight. The lowest antibiotic concentration where no growth of bacteria could be determined is defined as the MIC value of this strain.\nTo select first-step mutants agar plates containing an antibiotic concentration of 0.5×-, 1×-, 2×-, 3×- and 5×MIC were prepared and approximately 1×10^8 cells were plated and incubated overnight. Colonies grown on the plate with the highest antibiotic concentration were subcultured in liquid MH-media containing the same concentration of antibiotic to avoid loss of resistance. This culture was used to prepare a 25% glycerol stock that is stored at −80° C. To test the stability of resistance each strain was subcultured again either in presence of an antibiotic or in media without any antibiotics. After that both cultures were plated on agar plates. In case of a stable mutation that leads to the resistance no difference in growth behavior of the liquid culture or the cultures plated on agar plates should be noticed. The MIC of the mutants was determined.\nAfter the successful selection of eight first-step mutants the experiment was repeated in a same manner as described above to obtain mutants having a resistance to much higher concentration of antibiotic. With the exception of the actinomycin D mutant, additional mutants were obtained. Again the MIC-values for the new mutants were determined."}, "[2]": {"test_system": "S. aureus strain RN4220", "assay": "MIC determination, wildtype strain RN4220 (96-well dilution series, Mueller-Hinton broth)", "type": "cell-based, Staphylococcus aureus", "conditions": "for MIC: Staphylococcus aureus, RN4220", "experimental": "as §1"}, "[3]": {"test_system": "strains NRS106, NRS107, NRS128 and NRS129", "assay": "MIC determination, mutants purchased from NARSA", "type": "cell-based, Staphylococcus aureus", "conditions": "for MIC: Staphylococcus aureus, read-out: MIC of the mutant", "experimental": "Four strains from NARSA (Network on Antimicrobial Resistance in Staphylococcus aureus) could be purchased. The strains NRS106, NRS107, NRS128 and NRS129 show resistances against the antibiotics gentamicin, mupirocin, erythromycin and chloramphenicol.\nas §1"}, "[4]": {"test_system": "ten strains of Staphylococcus aureus, each resistant to a different, known, antibiotic", "assay": "Small scale experiment: panel of ten resistant strains in a microplate", "type": "cell-based", "conditions": "Example 1, FIG. 1", "experimental": "In a small scale experiment, ten strains of Staphylococcus aureus, each resistant to a different, known, antibiotic, were generated. These strains were added to the wells of a microplate. […] Thus, it was determined that each strain of Staphylococcus aureus was resistant to at least one of ten known antibiotics (FIG. 1).\nIn this way, it was shown that linezolid was not part of the initial set of ten antibiotics. In other words, the panel of ten Staphylococcus aureus strains used allowed dereplication of the ten antibiotics with no need for analytical chemistry. This experiment establishes that the panel of ten strains can be scaled up to several thousand strains, which will be collectively resistant to as many known antibiotics, and screen sources of unknown compounds (e.g., microbial or eukaryotic cell spent media, cell and tissue extracts, combinatorial libraries, etc.). Using such a large scale screen allows identification of a source containing an antimicrobial activity that is unique from the thousands of known antibiotics, and thus a likely source of a novel antibiotic. Similarly, and using either microbial spent media or individual compounds from chemical libraries, a search can be performed for novel compounds with anticancer, anti-inflammatory, or other desired properties."}, "[5]": {"conditions": "Table 1, 37° C. overnight, read-out: MIC of wildtype RN4220"}, "[6]": {"conditions": "Table 2, read-out: MIC of wilcitype RN4220"}}, "note": "Where two headings read alike, the source gives them in different places. Starred links: 1 amine or outer side, 2 acyl side, 3 side chain; linkers in the order of their positions; H or OH if unused. Positions of bridges follow the written chain, without caps; N, C: chain ends. Non-standard residues stand in square brackets, D forms with d. Residues, ends and D or L forms follow the SMILES beside them. Chains are numbered I, II in the order given. Actinocin(9to1) = Cc1c2oc3c(C)ccc(C(=O)[*:1])c3nc-2c(C(=O)[*:2])c(N)c1=O; NMeV = CN[C@H](C(=O)O)C(C)C; Sar = CNCC(=O)O"}
{"compound": "Cc1c2oc3c(C)ccc(C(=O)N[C@@H]4C(=O)N[C@H](C(C)C)C(=O)N5CCC[C@H]5C(=O)N(C)CC(=O)N(C)[C@@H](C(C)C)C(=O)O[C@@H]4C)c3nc-2c(C(=O)N[C@@H]2C(=O)N[C@H](C(C)C)C(=O)N3CCC[C@H]3C(=O)N(C)CC(=O)N(C)[C@@H](C(C)C)C(=O)O[C@@H]2C)c(N)c1=O", "note": "[Actinomycin D] (I: T[dV]P[Sar][NMeV] / II: T[dV]P[Sar][NMeV]; ester I:1-I:C, II:1-II:C; linker I:N-II:N via Actinocin(9to1))", "values": [{"measurement": "MIC of the mutant", "setting": "[1]", "value": 12.48, "unit": "µg/mL"}, {"measurement": "MIC of wildtype RN4220", "setting": "[2]; Table 1, 37° C. overnight", "value": 1.56, "unit": "µg/mL"}]}
{"compound": "CC1(C)S[C@@H]2[C@H](NC(=O)[C@H](N)c3ccccc3)C(=O)N2[C@H]1C(=O)O", "note": "[Ampicillin]", "values": [{"measurement": "MIC", "setting": "[1]", "value": 300, "unit": "µg/mL"}, {"measurement": "MIC", "setting": "[2]; [5]", "value": 0.2, "unit": "µg/mL"}]}
{"compound": "O=C(N[C@H](CO)[C@H](O)c1ccc([N+](=O)[O-])cc1)C(Cl)Cl", "note": "[Chloramphenicol]", "values": [{"measurement": "MIC", "setting": "[3]", "value": 12.5, "unit": "µg/mL"}, {"measurement": "MIC", "setting": "[2]; [6]", "value": 62.5, "unit": "µg/mL"}]}
{"compound": "CC[C@H]1OC(=O)[C@H](C)[C@@H](O[C@H]2C[C@@](C)(OC)[C@@H](O)[C@H](C)O2)[C@H](C)[C@@H](O[C@@H]2O[C@H](C)C[C@H](N(C)C)[C@H]2O)[C@](C)(O)C[C@@H](C)C(=O)[C@H](C)[C@@H](O)[C@]1(C)O", "note": "[Erythromycin]", "values": [{"measurement": "MIC", "setting": "[3]", "value": 0.8, "unit": "µg/mL"}]}
{"compound": "C/C(=C\\C(=O)OCCCCCCCCC(=O)O)C[C@@H]1OC[C@H](C[C@@H]2O[C@H]2[C@@H](C)[C@H](C)O)[C@@H](O)[C@H]1O", "note": "[Mupirocin]", "values": [{"measurement": "MIC", "setting": "[3]", "value": 25, "unit": "µg/mL"}, {"measurement": "MIC", "setting": "[2]; [6]", "value": 500, "unit": "µg/mL"}]}
{"compound": "CO[C@@H]1[C@@H](OC(N)=O)[C@@H](O)[C@H](Oc2ccc3c(O)c(NC(=O)c4ccc(O)c(CC=C(C)C)c4)c(=O)oc3c2C)OC1(C)C", "note": "[Novobiocin]", "values": [{"measurement": "MIC", "setting": "[1]", "value": 12.5, "unit": "µg/mL"}, {"measurement": "MIC", "setting": "[2]; [5]", "value": 0.05, "unit": "µg/mL"}]}
{"compound": "CC1COc2c(N3CCN(C)CC3)c(F)cc3c(=O)c(C(=O)O)cn1c23", "note": "(centres unmarked) [Ofloxacin]", "values": [{"measurement": "MIC", "setting": "[1]", "value": 1.5, "unit": "µg/mL"}, {"measurement": "MIC", "setting": "[2]; [5]", "value": 0.4, "unit": "µg/mL"}]}
{"compound": "CO[C@H]1/C=C/O[C@@]2(C)Oc3c(C)c(O)c4c(O)c(c(/C=N/N5CCN(C)CC5)c(O)c4c3C2=O)NC(=O)/C(C)=C\\C=C\\[C@H](C)[C@H](O)[C@@H](C)[C@@H](O)[C@@H](C)[C@H](OC(C)=O)[C@@H]1C", "note": "[Rifampicin]", "values": [{"measurement": "MIC", "setting": "[1]", "value": 250, "unit": "µg/mL"}, {"measurement": "MIC", "setting": "[2]; [5]", "value": 0.008, "unit": "µg/mL"}]}
{"compound": "[H]/N=C(/N)N[C@H]1[C@H](O)[C@@H](O)[C@H](O[C@@H]2O[C@@H](C)[C@](O)(C=O)[C@H]2O[C@@H]2O[C@@H](CO)[C@H](O)[C@@H](O)[C@@H]2NC)[C@@H](N/C(N)=N\\[H])[C@@H]1O", "note": "[Streptomycin]", "values": [{"measurement": "MIC", "setting": "[2]; [5]", "value": 25, "unit": "µg/mL"}]}
{"compound": "CN(C)[C@@H]1C(=O)C(C(N)=O)=C(O)[C@@]2(O)C(=O)C3=C(O)c4c(O)cccc4[C@@](C)(O)[C@H]3C[C@@H]12", "note": "[Tetracyclin]", "values": [{"measurement": "MIC of the mutant", "setting": "[1]", "value": 3.9, "unit": "µg/mL"}, {"measurement": "MIC of wildtype RN4220", "setting": "[2]; Table 1, 37° C. overnight", "value": 0.1, "unit": "µg/mL"}]}
{"compound": "CN[C@H](CC(C)C)C(=O)N[C@H]1C(=O)N[C@@H](CC(N)=O)C(=O)N[C@H]2C(=O)N[C@H]3C(=O)N[C@H](C(=O)N[C@H](C(=O)O)c4cc(O)cc(O)c4-c4cc3ccc4O)[C@H](O)c3ccc(c(Cl)c3)Oc3cc2cc(c3O[C@@H]2O[C@H](CO)[C@@H](O)[C@H](O)[C@H]2O[C@H]2C[C@](C)(N)[C@H](O)[C@H](C)O2)Oc2ccc(cc2Cl)[C@H]1O", "note": "[Vancomycin]", "values": [{"measurement": "MIC", "setting": "[1]", "value": 2000, "unit": "µg/mL"}, {"measurement": "MIC", "setting": "[2]; [5]", "value": 1.56, "unit": "µg/mL"}]}
{"compound": "CC(=O)NC[C@H]1CN(c2ccc(N3CCOCC3)c(F)c2)C(=O)O1", "note": "[linezolid]", "values": [{"measurement": "microbial growth in the wells containing the ten resistant strains", "setting": "[4]", "value": "suppressed the growth in all the wells"}]}
{"compound": "Gentamicin", "values": [{"measurement": "MIC of the mutant", "setting": "[3]; Table 2, NARSA strain named in the same line", "value": 0.8, "unit": "µg/mL"}, {"measurement": "MIC of wilcitype RN4220", "setting": "[2]; Table 2", "value": 250, "unit": "µg/mL"}]}
